Data reported in patent publication US20230322815A1, “NOVEL COMPOUNDS AND THERAPEUTIC USES THEREOF” (University of Huddersfield, priority 2020, published 2023).

What was measured:
[1] = test system: HCT116 p53^−/− cancer cells; assay: Autophagy (CYTO-ID staining, confocal); format: cell-based, human; conditions: 3.125 μM, 40 h
Experimental: FIG. 17. The effects of [L2Cu3]^6+, [L2Zn3]^6+ and [L2Mn3]^6+ on cellular vacuole formation and autophagy in the HCT116 p53^−/− cancer cells. Representative confocal images are shown of HCT116 p53^−/− cancer cells following 40 h treatment with vehicle control or 3.125 μM [L2Cu3]^6+, [L2Zn3]^6+, or [L2Mn3]^6+.
Autophagy studies: The effects of 3.125 μM [L2Cu3]^6+, [L2Zn3]^6+ and [L2Mn3]^6+ treatments (40 h) on the induction of cellular vacuoles and autophagy in the HCT116 p53^−/−, HCT116 p53^+/+ and ARPE19 cells are presented in FIGS. 17-19 with representative cell images shown. […] In the ARPE19 cells, levels of autophagy were low with all treatments and similar to basal levels in control-treated cells (FIG. 19).

HCT116 p53^−/− = assay: Chemosensitivity (MTT, 96 h continuous exposure); format: cell-based, human
Experimental: FIG. 7. Chemosensitivity response of a panel of human cancer and non-cancer cell lines to 96 h continuous exposure to self-assembling test compounds. a, The potency of compounds tested against cancer (HT-29, DLD-1, HCT116 p53^+/+ and […], PSN1, MiaPaCa2, BxPC3, A549, H460 and GBM1) and non-cancer cells (ARPE-19, MCF10A and NP1). Each value represents the mean IC50±standard deviation from a minimum of three independent experiments. b,c, The selectivity index (SI) for [L2Cu3]^6+ (b) and [L2Zn3]^6+ (c) for the indicated cancer cell lines; SI is defined as the mean IC50 against the particular non-cancer cell line model divided by the mean IC50 against the particular cancer cell line. […] As the SI value is calculated using the mean IC50 values, experimental error is not included in these figures. d,e, IC50 values for the clinically approved platinates (cisplatin, oxaliplatin and carboplatin) and [L2Mn3]^6+ and the corresponding SI results.
All cell lines used were maintained at low passage in antibiotic-free media and were obtained from ATCC (LGC Standards, Middlesex, UK) unless otherwise stated (Methods). HT29, DLD-1, HCT116 p53^+/+ and HCT116 p53^−/− are all colorectal adenocarcinoma cell lines derived from different individuals and harbor different combinations of oncogenic lesions (except for the HCT116 isogenic cancer cell clones that are genetically identical except for p53 status). PSN-1, BxPC-3 and MiaPaCa2 are pancreatic carcinoma cell lines and A549 and H460 are lung carcinoma cell lines. HT29, DLD-1, PSN-1, BxPC-3, A549 and H460 cell lines were cultured in RPMI-1640 growth media (Sigma) containing 2 mM L-glutamine, 1 mM sodium pyruvate and 10% fetal bovine serum (FBS). HCT116 (p53^+/+ and p53^−/−) and MiaPaCa2 cell lines were cultured in Dulbecco's Modified Eagle's Medium (Sigma), 2 mM L-glutamine and 10% FBS. The ARPE-19 retinal epithelial non-cancer cell line (Dunn et al., 1996) was cultured in DMEM/F12 media (Gibco), 2 mM L-glutamine, 1 mM sodium pyruvate and 10% FBS. The MCF10A non-cancerous human breast epithelial cell line was cultured in Minimal Essential Media Eagle (Sigma), 2 mM L-glutamine, 1 mM sodium pyruvate, 10% FBS and 1×non-essential amino acids (NEAA). NP1 and GBM1 cells were cultured on plasticware coated with poly-L-ornithine (5 μg/ml) and laminin (2.4 μg/ml) (Polson et al., 2018; Da Silva et al., 2019). […]
[L2M3]^6+ and all the other self-assembling complexes were freshly formed by adding DMSO to individual components mixing together by pipetting. […] Media and MTT were removed and formazan crystals were dissolved in 150 μl of DMSO and the absorbance of the resulting solution determined at 540 nm. […]

[Cu+2].[Cu+2].[Cu+2].c1ccc(-c2csc(NCCN(CCNc3nc(-c4ccccn4)cs3)CCNc3nc(-c4ccccn4)cs3)n2)nc1.c1ccc(-c2csc(NCCN(CCNc3nc(-c4ccccn4)cs3)CCNc3nc(-c4ccccn4)cs3)n2)nc1 [[L2Cu3]^6+] was tested, and the induction of autophagy [1] was “no or little autophagy”.
With [Zn+2].[Zn+2].[Zn+2].c1ccc(-c2csc(NCCN(CCNc3nc(-c4ccccn4)cs3)CCNc3nc(-c4ccccn4)cs3)n2)nc1.c1ccc(-c2csc(NCCN(CCNc3nc(-c4ccccn4)cs3)CCNc3nc(-c4ccccn4)cs3)n2)nc1 [[L2Zn3]^6+] the “selectivity index (IC50 non-cancer cells / IC50 cancer cells)” value (HCT116 p53^−/−; HCT116 p53^−/− compared to ARPE-19) was “over 2000”, the “selectivity index (IC50 non-cancer cells / IC50 cancer cells)” value (HCT116 p53^−/−; HCT116 p53^−/− compared to MCF10A) was “over 2000” and the IC50 (HCT116 p53^−/−; HCT116 p53^−/−, 96 h, MTT) was 70 ± 13 nM. The “fold more active towards HCT116 p53^−/− than HCT116 p53^+/+” value (HCT116 p53^−/−; based on 96 h IC50 values) was roughly 6 fold.
